Test [1] can be described thus: Luminescence Cell-Based Dose Retest to Confirm Inhibitors of Cancer Stem Cells. [Related pubchem assays (depositor defined):AID2717, AID2721]. In kind it is functional. The settings on record: Homo sapiens.
Test [2] can be described thus: inhibitors of intracellular T. cruzi replication, confirmation, NIH3T3 host cells, beta-gal luminescence (AID 2044).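 Further: intracellular parasites grown in NIH/3T3 mouse fibroblasts as host cells; luminescent beta-galactosidase reporter signal from transgenic T. cruzi replicating inside host cells; inhibitors lower the luminescence signal.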 The test is classed as functional, cell-based.
Test [3] in a line: cytotoxicity toward NIH3T3 fibroblasts, dose response, counter-screen, cell-based, ATP luminescence, mouse fibroblasts (AID 2010).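 Further: cells exposed to compound for about 90 hours before reading.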 The test is classed as functional.
Test [4] concerns the target T1, Heat shock factor protein 1 (Mus musculus, UniProt P38532).
T1 sequence (P38532 whole entry): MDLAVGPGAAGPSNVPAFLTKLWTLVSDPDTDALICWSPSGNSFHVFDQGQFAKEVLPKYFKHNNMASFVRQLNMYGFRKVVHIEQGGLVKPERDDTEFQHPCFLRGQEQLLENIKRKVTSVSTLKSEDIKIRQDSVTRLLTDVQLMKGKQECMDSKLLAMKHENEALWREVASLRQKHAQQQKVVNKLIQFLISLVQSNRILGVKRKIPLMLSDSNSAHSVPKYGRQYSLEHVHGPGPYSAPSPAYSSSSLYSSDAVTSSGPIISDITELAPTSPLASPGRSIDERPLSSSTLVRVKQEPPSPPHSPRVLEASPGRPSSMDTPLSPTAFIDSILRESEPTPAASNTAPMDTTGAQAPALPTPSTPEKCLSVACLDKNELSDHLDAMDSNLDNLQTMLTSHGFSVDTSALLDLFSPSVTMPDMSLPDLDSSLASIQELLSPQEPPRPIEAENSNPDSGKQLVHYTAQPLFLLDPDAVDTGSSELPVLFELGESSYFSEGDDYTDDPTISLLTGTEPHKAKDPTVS
Put plainly: inhibition of MG132-induced HSE-luciferase signal, confirmation, cell-based, NIH3T3, luminescence, dose retest (AID 2382).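 Further: NIH3T3 fibroblasts with HSF1-driven luciferase reporter stressed by proteasome inhibitor MG132; luminescence from HSF1-driven luciferase expression after 8 hours of MG132 stress.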 In kind it is functional.

In test [5] the target is T2, Corticotropin-releasing factor receptor 2/Corticotropin-releasing factor-binding protein (Homo sapiens, UniProt P24387+Q13324).
T2 sequence (Q13324 whole entry): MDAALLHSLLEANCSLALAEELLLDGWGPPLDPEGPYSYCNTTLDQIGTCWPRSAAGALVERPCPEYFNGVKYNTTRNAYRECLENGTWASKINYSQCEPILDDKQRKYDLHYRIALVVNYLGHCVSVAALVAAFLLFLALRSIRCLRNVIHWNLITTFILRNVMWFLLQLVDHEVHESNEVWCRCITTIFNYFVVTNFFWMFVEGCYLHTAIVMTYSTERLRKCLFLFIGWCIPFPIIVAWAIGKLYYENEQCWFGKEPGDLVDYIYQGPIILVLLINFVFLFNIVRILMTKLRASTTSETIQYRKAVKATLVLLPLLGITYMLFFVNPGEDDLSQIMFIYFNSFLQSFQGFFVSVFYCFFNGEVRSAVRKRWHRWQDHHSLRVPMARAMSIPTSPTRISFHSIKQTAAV
T2 sequence (P24387 whole entry): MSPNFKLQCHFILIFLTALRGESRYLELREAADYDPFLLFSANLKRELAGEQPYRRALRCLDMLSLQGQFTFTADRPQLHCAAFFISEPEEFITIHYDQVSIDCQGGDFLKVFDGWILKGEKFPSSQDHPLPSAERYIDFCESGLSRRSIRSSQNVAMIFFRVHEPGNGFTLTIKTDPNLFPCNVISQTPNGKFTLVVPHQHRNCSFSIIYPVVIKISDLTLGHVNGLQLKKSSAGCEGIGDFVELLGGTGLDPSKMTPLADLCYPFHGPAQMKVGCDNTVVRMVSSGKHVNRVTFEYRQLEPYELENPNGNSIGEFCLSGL
Put plainly: activators of CRF receptor 2 with binding protein – uHTS hits, confirmation (AID 602473). The test is classed as functional. The settings on record: read-out: EC50_Mean.

Test [6] can be described thus: growth suppression of beta-catenin-knockout colon cells, dose response, cell-based, HCT116, human colon tumor (AID 1045).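 Further: HCT116 colon tumor cells with beta catenin knocked out; cells exposed to compound for 60 hours.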 In kind it is functional.
A short description of test [7]: growth suppression of PTEN-null colon cells, dose response, cell-based, HCT116 PTEN knockout (AID 1047).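 Further: HCT116 colon tumor cells with PTEN knocked out; cells exposed to compound for 60 hours before readout; potency for loss of cell viability measured by luminescence.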 The test is classed as functional.
For another test, the system named is Streptococcus. Put plainly: Group A Streptococcus viability loss, dose response, counter-screen for streptokinase expression inhibitor project, luminescence, BacTiterGlo (AID 1915).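 Further: potency for reduction of bacterial viability or growth.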 The test is classed as functional, organism-based. A general note: Counterscreens check selectivity or assay interference.
The subject of test [8] is Streptococcus sp. 'group A'. Put plainly: growth inhibition of control SK(-) GAS strain, dose response, counter-screen for streptokinase expression inhibitor project, luminescence, kanamycin, BacTiterGlo, confirmation (AID 1900). The test is classed as functional, organism-based.

Active and inactive are the calls of the source. For most assays here, no stated cut-off is given here; in the data, actives have a measured EC50 and inactives only a lower limit.
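Wherever AC50 is given: cells exposed to compound for roughly 70 hours or longer before luminescence read.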

On to `O=c1cc(N2CCCCC2)c(-c2ccccc2)nn1Cc1cccc(Cl)c1`, for which the AC50 – broadly, the concentration giving half of the maximal activity seen – in [1] is 3.6 µM (active). As for `Cc1cccc(NC(=O)CSCC(=O)Nc2cc(Cl)ccc2N2CCN(C)CC2)c1`, the EC50 was 2.41 µM (active) in test [2] and > 60 µM (not active) in [3]. Turning to `Clc1cccc(Nc2nc(-c3cccnc3)cs2)c1`, the EC50 in test [2] was 1.23 µM (active); in test [3], > 60 µM (not active). Regarding `C=CCOCCN(CCOCC=C)C1=NS(=O)(=O)c2ccccc21`, the EC50 in test [4] is > 195 µM (not active). Take `CN(C)c1nc(NCc2ccccc2)nc(SCC(=O)Nc2ccc(Cl)c(Cl)c2)n1`: the EC50 was 2.15 µM (active) in test [2] and > 60 µM (inconclusive) in test [3].

In the case of `CCc1cc2c(NCCC(=O)O)nc(C)nc2s1`, the EC50 in [4] is listed as > 195 µM (not active). The same measure, in the same setting: the same measure for `CN(C)c1ccc(CNc2ccc3c(c2)ncn3C(C)(C)C)cc1`: 169 µM (active); for `CC1CCN(CC(=O)NC2CCCCC2)CC1`: > 195 µM (not active). Turning to `COc1ccc2nc(Cl)c(C#N)cc2c1`, in [4], the EC50 is given as > 195 µM (not active). As for `O=C(CCc1ccccc1)Nc1ncc([N+](=O)[O-])s1`, the EC50 was 0.951 µM (active) in [2] and > 60 µM (not active) in test [3]. Regarding `O=C(CCCNC1=NS(=O)(=O)c2ccccc21)OCC(=O)c1ccc(F)c(F)c1`, the EC50 in test [5] is 7.63 µM (active).

Turning to `COc1ccc(Cl)cc1NC(=O)CN(C)C(=O)Cn1cnc2c1c(=O)n(C)c(=O)n2C`, the EC50 in test [4] is listed as > 195 µM (not active). Regarding `O=[N+]([O-])c1cn(-c2nc(-c3ccco3)cc(C(F)(F)F)n2)cn1`, the EC50 in test [2] is 0.723 µM (active); in [3], > 30 µM (not active).

`Cc1cccc(NC(=O)c2cc(-c3cc(C)cc(C)c3O)[nH]n2)c1`: the AC50 in test [1] is 2.86 µM (active). `COc1ccc2c(c1)C=C(CN1CCN(Cc3ccccc3C)C(CCO)C1)CO2` (stereo not drawn): the EC50 in [2] is 0.391 µM (active); in [3], > 30 µM (not active). For the compound `COc1cc(OC)c(OC)cc1CN1CCCC(C(=O)c2ccccc2SC)C1` (stereo not drawn), the EC50 in test [2] is 0.138 µM (active); in test [3], > 60 µM (not active). Taken in the same sequence, the figures for `COC(=O)NC(=S)Nc1ccc(Oc2ccc(Cl)cc2Cl)c(Cl)c1` were 1.83 µM (active) and > 60 µM (not active).

Turning to `CCOC(=O)Cn1c(COc2ccccc2OC)[n+](C)c2ccccc21`, the EC50 in test [4] was > 195 µM (not active). As to `CCOC(=O)c1c(NC(=O)Cc2ccccc2)sc2c1CCN(C)C2`, the EC50 in test [2] is 0.109 µM (active); in [3], > 60 µM (not active). In the same order, the values of `COc1cc(C2SCC(=O)N2CCCN(C)C)cc(OC)c1OC` (stereo not drawn) are 0.264 µM (active) and > 60 µM (not active).

Turning to `COc1ccc(CN2CCN(Cc3ccc(C)cc3)CC2)c(OC)c1`, the values for the EC50 in test [2] and in test [3] were 0.22 µM (active) and > 60 µM (not active), respectively. `COc1ccccc1-n1c(S)nnc1CNC(=O)c1cccc([N+](=O)[O-])c1C`: the EC50 in [4] was > 195 µM (not active).

Take `COc1ccc(N2CCN(c3ncnc4scc(-c5ccc(C)cc5)c34)CC2)cc1`: the figures for the EC50 in test [2] and in test [3] were 2.69 µM (active) and > 60 µM (not active), respectively. In the same order, the values of `COc1ccc(CN(C(=O)Cc2cccs2)C(C(=O)NC2CCCC2)c2ccncc2)cc1` (stereo not drawn) are 2.22 µM (active) and 50.8 µM (active). `O=C(CCCCn1c(=O)[nH]c2ccsc2c1=O)NCc1cccnc1`: the EC50 in test [4] was > 195 µM (not active). With `COc1ccc(-c2nc3ccccc3c(=O)n2-c2cccnc2)cc1`, the EC50 in test [4] was > 195 µM (not active). As to `CN(C(=O)CSc1nc(C2CC2)nc2ccccc12)c1nc(-c2ccccc2)cs1`, the results for the EC50 in test [6] and in test [7] were 12.7 µM (active) and 14.7 µM (active), respectively. `Cc1ccc(-n2c(SCC(=O)N3c4ccccc4Sc4ccccc43)nnc2-c2ccncc2)cc1`: the EC50 in test [2] is 0.345 µM (active); in test [3], > 60 µM (not active).

As for `CCOC(=O)c1c(NC(=O)c2nn(CC)cc2Br)sc2c1CCCCC2`, the concentration at half-maximal activity (AC50) in [1] is 1.12 µM (active). For `CCN(Cc1ccccc1)C(=O)C1CCN(Cc2sccc2C)CC1`, the EC50 in [4] is given as > 195 µM (not active).

With `Nc1ccc(C23CC4CC(CC(O)(C4)C2)C3)cc1`, the EC50 in [4] is 41.2 µM (active). The same measure, in the same setting: the same measure for `CCn1c(=O)c2c3c(sc2n2cnnc12)CCC3`: > 195 µM (not active). With `O=C(Cc1csc(Nc2nc(S)nc3ccccc23)n1)NCCCN1CCN(c2cccc(Cl)c2)CC1`, the EC50 was > 150 µM (not active) in the test with Streptococcus and 8.14 µM (active) in test [8]. As for `COc1ccc(C(=O)C2CCCN(C3CSCCSC3)C2)c(OC)c1` (stereo not drawn), in [1], the AC50 is 0.939 µM (active). `Cn1c(NC(=O)c2ccccc2NC(=O)C(C)(C)C)nc2ccccc21`: the EC50 in [4] is > 195 µM (not active).

In the case of `CC1CC(C)CN(S(=O)(=O)c2ccc(C(=O)Nc3nnc(C4CC4)o3)cc2)C1` (stereo not drawn), the EC50 in the test on Streptococcus is 5.33 µM (active); in test [8], 1.25 µM (active). As to `Cc1cc(C)nc(NC(=NC(=O)C(C)(C)C)NCCc2c[nH]c3ccccc23)n1`, the EC50 in test [2] is 2.34 µM (active); in [3], > 60 µM (not active). With `CCN1CC2([N+](=O)[O-])C=CC(=O)C([N+](=O)[O-])(C1)C2CC(=O)c1ccccc1` (stereo not drawn), in test [4], the EC50 is > 195 µM (not active). `CC(NC(=O)c1cccnc1)C(c1cccs1)N1CCOCC1` (stereo not drawn): the EC50 in test [2] and in test [3] was > 60 µM (not active) each time. For `Cc1nnsc1[S+]([O-])c1ccc(Cl)c(Cl)c1` (stereo not drawn), the EC50 in test [4] was 12.4 µM (active). Regarding `Cc1cc(Br)c(NC(=O)CN2CC=C(c3ccccc3)CC2)c(Br)c1`, the EC50 in test [2] was 0.255 µM (active); in test [3], > 60 µM (not active). In the same order, the values of `COc1cc2c(cc1OC)C(c1cc3cccc(C)c3nc1O)N(C(=O)c1ccco1)CC2` (stereo not drawn) are 3.44 µM (active) and 10.5 µM (active). In the same order, the values of `Cc1cccc(C)c1N=C(S)N(Cc1ccccc1)Cc1cccnc1` are 1.46 µM (active) and > 60 µM (not active). As for `CC1(c2ccc(OC(F)F)cc2)NC(=O)N(CC(=O)c2ccc3c(c2)OCO3)C1=O` (stereo not drawn), in test [5], the EC50 is 5.4 µM (active). Take `O=C(Nc1cc(C(F)(F)F)ccc1Cl)c1cccnc1`: the EC50 in test [5] was > 53 µM (inactive). On to `CC1(C)C(=O)N(c2ccccc2)C1c1ccccc1O` (stereo not drawn), for which the AC50 in test [1] was 2.95 µM (active). `CCCNC(=O)Cn1c(=O)/c(=C/c2ccc(-c3ccc([N+](=O)[O-])cc3)o2)s/c1=C\C(=O)C(C)(C)C`: the EC50 in test [5] was 2.05 µM (active). Take `CC1CC1C(=O)N1CCN(S(=O)(=O)c2cc(C(F)(F)F)cc(C(F)(F)F)c2)CC1` (stereo not drawn): in test [1], the AC50 was 2.76 µM (active). As for `CCCCCn1nc(C)c(/C=N\NC(=O)c2cc(C)oc2C)c1C`, the EC50 in test [5] was > 53 µM (inactive). In the case of `Cc1cccc(C)c1OCc1cc(C(=O)N2C[C@@H]3C[C@H]4C[C@@H](C3)C[C@@H]2C4)no1`, the AC50 in [1] was 1.27 µM (active).

For `CCC(O)(CC)C(=O)N/N=C/c1cc(Br)cc(Br)c1O`, the EC50 was 3.08 µM (active) in the test with Streptococcus and 2.9 µM (active) in [8]. The AC50 in test [1] was 12.6 µM (active). Turning to `O=C(N/N=C/c1cc(Br)cc(Br)c1O)c1cccc(S(=O)(=O)N2CCOCC2)c1`, the EC50 is 3.91 µM (active) in the test on Streptococcus and 0.765 µM (active) in [8].

Take `Cc1cc(=O)oc2cc(OCC#N)ccc12`: in [4], the EC50 is > 195 µM (not active).

(Values after ChEMBL document CHEMBL1201862, “PubChem BioAssay data set” (2004).)
